In patent US10167280B2, “Substituted oxopyridine derivatives” (BAYER PHARMA AKTIENGESELLSCHAFT, priority 2014, dated 2019):

What was measured:
human factor XIa = human factor XIa (Homo sapiens (Human), UniProt P03951); experiment: Measurement of FXIa inhibition (fluorogenic peptide substrate Boc-Glu(OBzl)-Ala-Arg-AMC); format: biochemical; conditions: Table A, 30 min at 22° C., fluorescence
Method: (§1) The factor XIa inhibition of the substances according to the invention is determined using a biochemical test system which utilizes the reaction of a peptidic factor XIa substrate to determine the enzymatic activity of human factor XIa. Here, factor XIa cleaves from the peptic factor XIa substrate the C-terminal aminomethylcoumarin (AMC), the fluorescence of which is measured. The determinations are carried out in microtitre plates.
1 μl of the diluted substance solutions is placed into each of the wells of white microtitre plates from Greiner (384 wells). […] After […] of incubation, the enzyme reaction is started by addition of 20 μl of the factor XIa substrate Boc-Glu(OBzl)-Ala-Arg-AMC dissolved in assay buffer (10 μM in assay buffer) from Bachem, the mixture is incubated at room temperature (22° C.) for 30 min and fluorescence is then measured (excitation: 360 nm, emission: 460 nm). The measured emissions of the test batches with test substance are compared to those of control batches without test substance (only dimethyl sulphoxide instead of test substance in dimethyl sulphoxide), and IC50 values are calculated from the concentration/activity relationships.

human plasma kallikrein = human plasma kallikrein (Homo sapiens (Human), UniProt P03952); experiment: Determination of the plasma kallikrein activity (fluorogenic peptide substrate H-Pro-Phe-Arg-AMC); format: biochemical; conditions: Table B; plasma kallikrein inhibition, 30 min at 22° C., fluorescence
human plasma kallikrein, sequence (P03952 391-638): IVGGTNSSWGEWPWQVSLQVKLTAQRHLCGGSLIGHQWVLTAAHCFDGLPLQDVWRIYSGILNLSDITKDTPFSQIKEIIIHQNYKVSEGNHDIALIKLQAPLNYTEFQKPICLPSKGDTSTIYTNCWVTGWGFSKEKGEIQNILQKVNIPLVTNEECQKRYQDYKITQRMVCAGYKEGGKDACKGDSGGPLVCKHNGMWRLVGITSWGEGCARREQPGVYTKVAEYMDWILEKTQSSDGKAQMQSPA
human plasma kallikrein, sequence (P03952 20-390 partner): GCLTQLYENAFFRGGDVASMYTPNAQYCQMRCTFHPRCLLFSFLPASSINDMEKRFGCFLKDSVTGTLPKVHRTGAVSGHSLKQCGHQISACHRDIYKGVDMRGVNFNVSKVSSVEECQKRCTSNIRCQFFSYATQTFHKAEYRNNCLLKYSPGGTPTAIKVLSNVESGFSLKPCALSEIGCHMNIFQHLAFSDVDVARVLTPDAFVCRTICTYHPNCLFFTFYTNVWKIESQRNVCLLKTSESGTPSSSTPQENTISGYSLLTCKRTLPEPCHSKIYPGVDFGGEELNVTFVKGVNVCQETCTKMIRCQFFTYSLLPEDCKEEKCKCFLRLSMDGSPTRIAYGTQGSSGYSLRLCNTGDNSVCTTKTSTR
Method: as §1, with “To determine the plasma kallikrein” for “The factor XIa”, “invention,” for “invention is determined using”, “system is used” for “system”, “plasma kallikrein” for “factor XIa”, “plasma kallikrein.” for “factor XIa.”
1 μl of the diluted substance solutions is placed into each of the wells of white microtitre plates from Greiner (384 wells). 20 μl of assay buffer (50 mM Tris/HCl pH 7.4; 100 mM sodium chloride solution; 5 mM of calcium chloride solution; 0.1% of bovine serum albumin) and 20 μl of plasma kallikrein from Kordia (0.6 nM in assay buffer) are then added successively. After 15 min of incubation, the enzyme reaction is started by addition of 20 μl of the substrate H-Pro-Phe-Arg-AMC dissolved in assay buffer (10 μM in assay buffer) from Bachem, the mixture is incubated at room temperature (22° C.) for 30 min and fluorescence is then measured (excitation: 360 nm, emission: 460 nm). The measured emissions of the test batches with test substance are compared to those of control batches without test substance (only dimethyl sulphoxide instead of test substance in dimethyl sulphoxide), and IC50 values are calculated from the concentration/activity relationships.

human factor XIa, sequence (P03951 388-625): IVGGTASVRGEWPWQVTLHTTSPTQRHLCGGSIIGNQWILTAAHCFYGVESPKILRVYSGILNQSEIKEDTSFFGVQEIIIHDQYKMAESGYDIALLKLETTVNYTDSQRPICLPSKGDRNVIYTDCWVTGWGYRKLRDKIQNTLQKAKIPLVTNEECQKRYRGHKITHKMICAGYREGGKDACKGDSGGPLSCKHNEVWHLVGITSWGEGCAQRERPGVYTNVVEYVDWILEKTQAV
human factor XIa, sequence (P03951 19-387 partner): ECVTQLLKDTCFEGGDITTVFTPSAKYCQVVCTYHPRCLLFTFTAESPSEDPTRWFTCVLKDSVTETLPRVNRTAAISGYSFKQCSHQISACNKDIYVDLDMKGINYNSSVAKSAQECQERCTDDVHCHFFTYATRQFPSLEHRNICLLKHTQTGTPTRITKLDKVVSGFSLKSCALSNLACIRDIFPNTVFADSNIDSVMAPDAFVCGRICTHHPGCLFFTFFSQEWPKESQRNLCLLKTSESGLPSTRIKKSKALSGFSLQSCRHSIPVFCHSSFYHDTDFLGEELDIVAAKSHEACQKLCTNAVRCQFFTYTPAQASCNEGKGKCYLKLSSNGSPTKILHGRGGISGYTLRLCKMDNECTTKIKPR

| SMILES | IC50 (human factor XIa) [nM] | IC50 (human plasma kallikrein) [nM] |
| --- | --- | --- |
| N#Cc1ccc(Cl)cc1-c1cc(=O)n(C(Cc2ccccn2)C(=O)Nc2ccc(C(N)=O)nc2)cc1OC(F)F (centres unmarked) [Example 7] | 160 | 490 |
| CNC(=O)c1ccc(NC(=O)C(CCOC)n2cc(Cl)c(-c3cc(Cl)ccc3C#N)cc2=O)cn1 (centres unmarked) [Example 15] | 23 | 53 |
| N#Cc1ccc(Cl)cc1-c1cc(=O)n(C(C[C@@H]2CCCCO2)C(=O)Nc2ccc(C(N)=O)nc2)cc1Cl (some centres unmarked) [Example 4] | 16 | 140 |
| COc1cn(C(Cc2cocn2)C(=O)Nc2ccc(C(N)=O)nc2)c(=O)cc1-c1cc(Cl)ccc1C#N (centres unmarked) [Example 11] | 48 | 52 |
| CNC(=O)c1ccc(NC(=O)C(Cc2ccn(C)n2)n2cc(C3CC3)c(-c3cc(Cl)ccc3C#N)cc2=O)cn1 (racemic) [Example 51, 5-({2-[4-(5-Chloro-2-cyanophenyl)-5-cyclopropyl-2-oxopyridin-1(2H)-yl]-3-(1-methyl-1H-pyrazol-3-yl)propanoyl}amino)-N-methylpyridine-2-carboxamide (racemate)] | 200 | 80 |
| N#Cc1ccc(Cl)cc1-c1cc(=O)n(C(Cc2cocn2)C(=O)Nc2ccc(C(N)=O)nc2)cc1Cl (centres unmarked) [Example 10] | 210 | 470 |
| CCC(C(=O)Nc1ccc(C(=O)NC)nc1)n1cc(OC)c(-c2cc(Cl)ccc2C#N)cc1=O (centres unmarked) [Example 2] | 20 | 16 |
| N#Cc1ccc(Cl)cc1-c1cc(=O)n(C(Cc2cnco2)C(=O)Nc2ccc(C(N)=O)nc2)cc1OC(F)F (centres unmarked) [Example 12] | 210 | 640 |
| COc1cn(C(Cc2cc(C)no2)C(=O)Nc2ccc(C(N)=O)nc2)c(=O)cc1-c1cc(Cl)ccc1F (centres unmarked) [Example 14] | 390 | 160 |
| CCC(C(=O)Nc1ccc(C(N)=O)nc1)n1cc(OC)c(-c2cc(Cl)ccc2C#N)cc1=O (centres unmarked) [Example 1] | 20 | 22 |
| COc1cn(C(Cc2cccnc2)C(=O)Nc2ccc(C(N)=O)nc2)c(=O)cc1-c1cc(Cl)ccc1C#N (centres unmarked) [Example 8] | 11 | 6 |
| COCCC(C(=O)Nc1ccc(C(N)=O)nc1)n1cc(Cl)c(-c2cc(Cl)ccc2C#N)cc1=O (centres unmarked) [Example 3] | 29 | 100 |
| N#Cc1ccc(Cl)cc1-c1cc(=O)n(C(Cc2cnco2)C(=O)Nc2ccc(C(N)=O)nc2)cc1Cl (centres unmarked) [Example 16] | 32 | 89 |
| COc1cn(C(Cc2ccccn2)C(=O)Nc2ccc(C(N)=O)nc2)c(=O)cc1-c1cc(Cl)ccc1F (centres unmarked) [Example 13] | 220 | 250 |
| CNC(=O)c1ccc(NC(=O)C(C[C@@H]2CCCCO2)n2cc(Cl)c(-c3cc(Cl)ccc3C#N)cc2=O)cn1 (some centres unmarked) [Example 5] | 12 | 120 |
| CNC(=O)c1ccc(NC(=O)C(Cc2ccn(C)n2)n2cc(OC)c(-c3cc(F)ccc3C#N)cc2=O)cn1 (racemic) [Example 49, 5-({2-[4-(2-Cyano-5-fluorophenyl)-5-methoxy-2-oxopyridin-1(2H)-yl]-3-(1-methyl-1H-pyrazol-3-yl)propanoyl}amino)-N-methylpyridine-2-carboxamide (racemate)] | 160 | 130 |
